In US7125997B2, “Differential tumor cytotoxicity compounds and compositions” (IRM LLC, priority 2002, dated 2006):

Tested on: Human SW620 colon tumor cells
Assay: alamarBlue cell viability (cytotoxicity) assay, SW620
Assay type: cell-based
Conditions: SW-620, 48 h, SW620 cell line, two days incubation, alamarBlue fluorescence
Method: Human SW620 colon tumor cells are cultivated using 10% FCS/DMEM (Invitrogen) medium. The cells are plated into 384 well plates at a density of 8000 cells per well in a volume of 50 μL. The cells are placed in a 37° C. incubator and allowed to adhere overnight. Test compounds are added to the cells in a volume of 500 nL (final DMSO concentration in assay is 1%). Serial dilutions of the test compound are added (the top concentration of compound is 10 micromolar (final assay concentration) followed by 11 two fold dilutions. The cells are incubated for a further two days. A solution (50 μL) comprised of 20% alamarBlue™ (Biosource International, Inc.) and 80% assay medium is added to each well and the plates are incubated at 37° C. for a further 4 hours. The plates are read by fluorescence (530 nm excitation, 580 nm emission) on an Acquest reader (LJL Biosystems). The IC50 is defined as the concentration of a test compound at the end of the incubation period, which leads to 50% of cell viability per well compared with the control (concentration at semi-maximum inhibition of cell growth).

## O=C(Nc1ccc(N2CCOCC2)cc1)c1ccc(Nc2ccc(OC(F)(F)F)cc2)cc1 [Example 1, N-(4-Morpholin-4-yl-phenyl)-4-(4-trifluoromethoxy-phenylamino)-benzamide]
  IC50: 0.026 µM
